# Experimental data from patent publication US20150143553A1, “Methods And Compositions Comprising A Drosophila Model Of Amyotrophic Lateral Sclerosis” (priority 2013, published 2015).
# Where a name gives a salt, the structure may show the parent alone.
# Tested on: Drosophila larvae expressing wild-type TDP-43 in motor neurons
# Assay: Drug screen: rescue of lethality caused by wild-type TDP-43 expression in motor neurons (D42 Gal4)
# Assay type: in vivo
# Details: Wild-type TDP-43; 25 μM; out of 15-20 pupae
# From the text: […] Larvae expressing TDP-43 (wild type or mutant, as shown) are raised on drug containing food.
# […] Larvae expressing TDP-43 (wt or mutant) were raised on drug containing food.
# Using a Drosophila model of ALS based on TDP-43 that recapitulates several aspects of the disease pathophysiology (33, 35), a drug screen aimed at identifying FDA approved compounds with neuroprotective potential in vivo were designed (FIG. 37A). […] This phenotype was used to screen for drug candidates with therapeutic potential as determined by their ability to rescue pupal lethality and produce viable adults with extended wings (FIG. 37A). […]
# UAS TDP-43 males were crossed with D42-Gal4 female virgins on fly food containing either DMSO or pioglitazone. For DMSO controls, the same volume of DMSO as the corresponding drug concentration was added. Bromophenol blue was added to a final concentration of approximately 0.02% to ensure homogeneity. Crosses were made on drug food with 3 female virgins and 2 males in each vial, and were maintained at 25° C. unless noted. The parents were discarded after 5-7 days then the vials were screened for adult progeny with straight wings from day 14 to day 25. All adults were screened for TDP-43 expression by visualizing the YFP tag. Total number of pupae was counted on day 25. Percent survival was calculated using the formula (total number of straight-winged adults/total number of pupae)×100. All experiments were performed in triplicate.
row,Molecule,Rescue Effect (out of 15-20 pupae) (drug conc.) [adults]
1,CN(C)C(=N)N=C(N)N [Metformin],2

# Same assay, conditions: transgene WT2; 30 μM in fly food
row,Molecule,Preliminary rescue result: adults with normal wings
1,COc1cc(-c2ccc(=O)[nH]n2)ccc1OC(F)F [Zardaverine],1 Adult Normal Wings Adults
2,CCNCC(O)c1cccc(O)c1.Cl (centres unmarked) [Etilifrine Hydrochloride],1 Adult Normal Wing Adults
3,O=C(c1ccccc1)c1ccc2n1CCC2C(=O)O (centres unmarked) [Ketorolac Tromethamine],2 Adult Normal Wings Adults
4,CCCc1cc(C(N)=S)ccn1 [Prothionamide],1 Adult Normal Wings Adults
5,C[N+](C)(CCOc1ccccc1)Cc1ccccc1.O=C([O-])c1cc2ccccc2cc1O [BepheniμM Hydroxynaphthoate],2 Adult Normal Wings Adults
6,OC(CCN1CCCC1)(c1ccccc1)C1CCCCC1 (centres unmarked) [Procyclidine HCL],1 Adult Normal Wings Adults
7,COCCOC(=O)C1=C(C)NC(C)=C(C(=O)OC/C=C/c2ccccc2)C1c1cccc([N+](=O)[O-])c1 (centres unmarked) [Cilnidipine],2 Adult Normal Wings Adults
8,Nc1cc(-c2ccncc2)c[nH]c1=O [Amrinone],1 Adult Normal Wings Adults
9,Clc1ccc(C(OCCN2CCCCC2)c2ccccc2)cc1 (centres unmarked) [Cloperastine HCl],1 Adult Normal Wings Adults
10,CNCCCC1c2ccccc2C=Cc2ccccc21 [Protriptyline Hydrochloride],1 Adult Normal Wings Adults
11,CC1(C)S[C@@H]2[C@H](NC(=O)[C@H](NC(=O)N3CCNC3=O)c3ccccc3)C(=O)N2[C@H]1C(=O)[O-].[Na+] [Azlocillin Na Salt],1 Adult Normal Wings Adults
12,CC(CNC1CCCCC1)OC(=O)c1ccccc1 (centres unmarked) [Hexylcaine HCl],6 Adults Normal Wings
13,CCC(=O)O[C@@](Cc1ccccc1)(c1ccccc1)[C@@H](C)CN(C)C [Levopropoxyphene Napsylate],2 Adult Normal Wings Adults
14,COc1ccccc1N1CCN(CCCNc2cc(=O)n(C)c(=O)n2C)CC1 [Urapidil Hydrochloride],1 Adult Normal Wings Adults
15,CCOC(=O)[C@H](CCc1ccccc1)N[C@@H](C)C(=O)N1Cc2ccccc2C[C@H]1C(=O)O [Quinapril Hcl],2 Adult Normal Wings Adults
16,CN(C)CCCO[C@@H]1[C@H]2OC(C)(C)O[C@H]2O[C@@H]1[C@H](O)CO [Amiprilose HCl],1 Adult Normal Wings Adults
17,COc1cc2nc(N3CCN(C(=O)c4ccco4)CC3)nc(N)c2cc1OC [Prazosin Hydrochloride],1 Adult Normal Wings Adults
18,"Cl.NCC(O)c1ccc(O)cc1 (racemic) [(+,−)-Octopamine HCl]",5 Adult Normal Wings Adults

row,Molecule,Preliminary rescue result: adults with normal wings
1,CO/N=C(\C(=O)N[C@@H]1C(=O)N2C(C(=O)O)=C(C[N+]3(C)CCCC3)CS[C@H]12)c1csc(N)n1 [Cefepime Hydrochloride],2 Adult Normal Wings Adults
2,CNC(=C[N+](=O)[O-])NCCSCc1csc(CN(C)C)n1 [Nizatidine],2 Adult Normal Wings Adults
3,COc1ccc(C(=O)c2ccccc2)c(O)c1 [Oxybenzone],1 Adult Normal Wings Adults
4,C[N+]1(C)[C@@H]2CC[C@H]1C[C@@H](OC(=O)C(CO)c1ccccc1)C2 (some centres unmarked) [Methylatropine Nitrate],2 Adult Normal Wings Adults
5,COc1ccc2cc([C@@H](C)C(=O)[O-])ccc2c1.[Na+] [R-Naproxen Na Salt],2 Adult Normal Wings Adults
6,CC1(C)S[C@@H]2[C@H](NC(=O)[C@H](C(=O)[O-])c3ccsc3)C(=O)N2[C@H]1C(=O)[O-].[Na+].[Na+] [Ticarcillin Sodiim],1 Adult Normal Wings Adults
7,Carbinoxamine Maleate Salt,1 Adult Normal Wings Adults
8,COc1ccc(C(=O)c2ccccc2O)c(O)c1 [Dioxybenzone],14 Adult Normal Wings Adults
9,N[C@@H](Cc1cc(I)c(Oc2ccc(O)c(I)c2)c(I)c1)C(=O)O [Liothyronine],3 Adult Normal Wings Adults
10,COc1cc([C@@H]2c3cc4c(cc3[C@H](O)[C@H]3COC(=O)[C@H]23)OCO4)cc(OC)c1OC [Podophyllotoxin],8 Adult Normal Wings Adults
11,CC1CC(OC(=O)C(O)c2ccccc2)CC(C)(C)N1C (centres unmarked) [Eucatropine HCl],1 Adult Normal Wings Adults
12,CC[C@H]1OC(=O)[C@H](C)[C@@H](O[C@H]2C[C@@](C)(OC)[C@@H](O)[C@H](C)O2)[C@H](C)[C@@H](O[C@@H]2O[C@H](C)C[C@H](N(C)C)[C@H]2O)[C@](C)(O)C[C@@H](C)CN(C)[C@H](C)[C@@H](O)[C@]1(C)O [Azithromycin],1 Adult Normal Wings Adults
13,COc1ccc2c(c1)C(=O)N(CCc1ccc(S(=O)(=O)NC(=O)NC3CCCCC3)cc1)C(=O)C2(C)C [Gliquidone],7 Adult Normal Wings Adults
14,COCC(=O)Nc1c(I)c(C(=O)NCC(O)CO)c(I)c(C(=O)N(C)CC(O)CO)c1I (centres unmarked) [Iopromide],1 Adult Normal Wings Adults
15,Cc1cc(CC(=O)[O-])n(C)c1C(=O)c1ccc(Cl)cc1.O.O.[Na+] [Zomepirac Na Salt],3 Adult Normal Wings Adults
16,CC[N+](C)(CC)CCOC(=O)C1c2ccccc2Oc2ccccc21 [Methantheline Bromide],1 Adult Normal Wings Adults
17,CC(=O)Oc1ccccc1C(=O)O [Acetylsalicylic Acid],1/1
18,CCCOc1cc(N)ccc1C(=O)OCCN(CC)CC [Propoxycaine Hcl],1 Adult Normal Wings Adults

# Same assay, conditions: transgene WT2; 50 μM in fly food
row,Molecule,Preliminary rescue result: adults with normal wings
1,COc1ccc2[nH]cc(CCNC(C)=O)c2c1 [Melatonin],4 Adults Normal Wings
2,Cc1noc(NS(=O)(=O)c2ccc(N)cc2)c1C [Sulfisoxazole],1 Adult Normal Wings Adults
3,O=C1c2c(O)cccc2Cc2cccc(O)c21 [Anthralin],1 Adult Normal Wings Adults
4,Cc1cc(C(C#N)c2ccc(Cl)cc2)c(Cl)cc1NC(=O)c1cc(I)cc(I)c1O (centres unmarked) [Closantel],2 Adults Normal Wings
5,Cc1cc(-c2ccccc2)nnc1NCCN1CCOCC1 [Minaprine Dihydrochloride],1 Adult Normal Wings Adults
6,O=P(O)(O)C(Cl)(Cl)P(=O)(O)O [Clodronate],3 Adult Normal Wings Adults
7,Clc1ccccc1C(c1ccccc1)(c1ccccc1)n1ccnc1 [Clotrimazole],1 Adult Normal Wings Adults
8,CCCCOc1cc(C(=O)OCCN(CC)CC)ccc1N [Benoxinate Hydrochloride],1 Adult Normal Wings Adults
9,COC(=O)N/N=C/c1c[n+]([O-])c2ccccc2[n+]1[O-] [Carbadox],1 Adult Normal Wings Adults
10,Thioproperazine Dimesylate,1 Adult Normal Wings Adults
11,Nc1c2c(nc3ccccc13)CCCC2 [Tacrine Hydrochloride Hydrate],4 Adults Normal Wings
12,O=S(=O)(O)CCS [Mesna],4 Adult Normal Wings Adults
13,CCCc1nc(C)c2c(=O)[nH]c(-c3cc(S(=O)(=O)N4CCN(CC)CC4)ccc3OCC)nn12 [Vardenafil],3 Adult Normal Wings Adults
14,CC(NCCc1ccc(O)cc1)C(O)c1ccc(O)cc1 (centres unmarked) [Ritodrine],2 Adults Normal Wings
15,CCCCOc1cc(C(=O)NCCN(CC)CC)c2ccccc2n1 [Dibucaine],1 Adult Normal Wings Adults
16,CCN(CC)C(=O)c1ccc(O)c(OC)c1 [Ethamivan],1 Adult Normal Wings Adults
17,OC(Cn1cncn1)(Cn1cncn1)c1ccc(F)cc1F [Fluconazole],1 Adult Normal Wings Adults
18,CC(C)(C)NCC(O)COc1cccc2c1CCC(=O)N2 (centres unmarked) [Carteolol HCl],2 Adults Normal Wings
19,CN1CCN(C(c2ccccc2)c2ccccc2)CC1 [Cyclizine Hcl],1 Adult Normal Wings Adults
20,CCn1cc(C(=O)O)c(=O)c2cc(F)c(N3CCNCC3)nc21 [Enoxacin],3 Adult Normal Wings Adults
21,NC1CCN(c2nc3c(cc2F)c(=O)c(C(=O)O)cn3-c2ccc(F)cc2F)C1 (centres unmarked) [Tosufloxacin Hydrochloride],3 Adult Normal Wings Adults
22,CCOc1cc(CC(=O)N[C@@H](CC(C)C)c2ccccc2N2CCCCC2)ccc1C(=O)O [Repaglinide],1 Adult Normal Wings Adults
